Source: patent US6544989B2, “Benzazoles: benzoxazole, benzthiazole and benzimidazole derivatives” (Syngenta Limited, priority 1998, dated 2003)
Like-named read-outs stand apart in the source and are kept apart here. Marks after values point to notes of the source that are not given here.

Columns and labels:
Plasmopara viticola = assay: Fungicidal test, Plasmopara viticola (PLASVI) on vines, PRCO; format: in vivo
Uncinula necator = assay: Fungicidal test, Uncinula necator (UNCINE) on vines, PRCO; format: in vivo; settings: METHOD 2 (unbanded)
Venturia inaequalis = assay: Fungicidal test, Venturia inaequalis (VENTIN) on apples, PRCO; format: in vivo; settings: METHOD 2 (unbanded)
[1] = system: Erysiphe graminis f.sp. tritici; assay: Fungicidal test, Erysiphe graminis f.sp. tritici (ERYSGT) on wheat, PRCO; format: in vivo; settings: for ERYSGT 1 d Prot/Foir PRCO: METHOD 2 (unbanded)
Septoria nodorum = assay: Fungicidal test, Septoria nodorum (LEPTNO) on wheat, PRCO; format: in vivo
Puccinia recondita = assay: Fungicidal test, Puccinia recondita (PUCCRT) on wheat, PRCO; format: in vivo
Rhizoctonia solani = assay: Fungicidal test, Rhizoctonia solani (RHIZSO) on rice, PRCO; format: in vivo; settings: METHOD 2 (unbanded)
Musca domestica = settings: 500 ppm by weight; knockdown assessed 15 minutes after treatment
Meloidogyne incognita = assay: Nematode test, J2 infective juveniles of Meloidogyne incognita, mortality; settings: 12.5 ppm; J2 infective juveniles suspended in solution; mortality after three days
[2] = system: Phytophthora infestans lycopersici; format: in vivo
Pyricularia oryzae = format: in vivo; settings: METHOD 2 (unbanded)

Compound | PLASVI 1 d Prot/Foir PRCO (Plasmopara viticola; METHOD 2 (unbanded)) | UNCINE 1 d Prot/Foir PRCO (Uncinula necator) | VENTIN 1 d Prot/Foir PRCO (Venturia inaequalis) | ERYSGT 1 d Prot/Foir PRCO [1] | LEPTNO 1 d Prot/Foir PRCO (Septoria nodorum; METHOD 2 (unbanded)) | PUCCRT 1 d Prot/Foir PRCO (Puccinia recondita; METHOD 2 (unbanded)) | RHIZSO 1 d Prot/Foir PRCO (Rhizoctonia solani) | MUSCDO AC = Musca domestica (knockdown), score (Musca domestica) | MELGIN = Meloidogyne incognita, grading of mortality (score) (Meloidogyne incognita) | PHYTIN 1 d Prot/Foir PRCO ([2]; METHOD 1 (values marked *)) | PUCCRT 1 d Prot/Foir PRCO (Puccinia recondita; METHOD 1 (values marked *)) | PHYTIN 1 d Prot/Foir PRCO ([2]; METHOD 2 (unbanded)) | PYRIOR 1 d Prot/Foir PRCO (Pyricularia oryzae) | PLASVI 1 d Prot/Foir PRCO (Plasmopara viticola; METHOD 1 (values marked *)) | ERYSGT 6 hr Prot/Foir PRCO ([1]; 6 hr Prot/Foir, METHOD 1 (values marked *)) | LEPTNO 1 d Prot/Foir PRCO (Septoria nodorum; METHOD 1 (values marked *))
CCc1nc2cc(CC(=O)Nc3snc(C)c3Cl)ccc2o1 [3(A3)] | 14 | 27 | 67 | 4 | 33 | 98 | 0 | 9 (9 indicates 80-100% mortality) | 0 (0 indicates less than 40% mortality) | – | – | – | – | – | – | –
Cc1nsc(NC(=O)Cc2ccc3oc(COc4ccccc4)nc3c2)c1Cl [140(A3)] | 63 | 99 | 70 | 44 | 13 | 96 | 0 | 0 (0 indicates less than 40% mortality) | 0 (0 indicates less than 40% mortality) | – | – | – | – | – | – | –
CSc1nc2cc(CC(=O)Nc3snc(C)c3Cl)ccc2o1 [220(A3)] | 6 | −5 | 11 | 12 | 17 | – | 0 | 5 (5 indicates 40-79% mortality) | 0 (0 indicates less than 40% mortality) | 100* | 100* | – | – | – | – | –
Cc1nc2cc(CC(=O)Nc3snc(C)c3Cl)ccc2s1 [2(A13)] | – | 72 | – | 31 | 62 | 99 | 43 | 0 (0 indicates less than 40% mortality) | 5 (5 indicates 40-79% mortality) | – | – | 100 | 47 | – | – | –
Cc1nsc(NC(=O)Cc2ccc3oc(C(C)C)nc3c2)c1Cl [8(A3)] | 6 | 40 | 26 | 20 | 0 | 90 | 0 | 9 (9 indicates 80-100% mortality) | 0 (0 indicates less than 40% mortality) | – | – | – | – | – | – | –
Cc1nsc(NC(=O)Cc2ccc3oc(-c4ccc(Cl)cc4Cl)nc3c2)c1Cl [257(A3)] | – | 61 | 0 | – | – | – | 11 | 0 (0 indicates less than 40% mortality) | 5 (5 indicates 40-79% mortality) | 0* | 100* | – | – | 79* | 0* | 0*
Cc1nsc(NC(=O)Cc2ccc3oc(CF)nc3c2)c1Cl [73(A3)] | – | 93 | – | 93 | 57 | 100 | 0 | 0 (0 indicates less than 40% mortality) | 0 (0 indicates less than 40% mortality) | – | – | 100 | 100 | – | – | –
Cc1nsc(NC(=O)Cc2ccc3nc(CC(C)(C)C)oc3c2)c1Cl [15(A23)] | – | 100 | 100 | 62 | 83 | 98 | 0 | 0 (0 indicates less than 40% mortality) | 0 (0 indicates less than 40% mortality) | – | – | 100 | 80 | – | – | –
